Results on six compounds are retold here after patent publication US20260216220A1, “TREATMENT OF MYELOPEROXIDASE-POSITIVE ANCA-ASSOCIATED VASCULITIS WITH H2S RELEASING COMPOUNDS” (DEBRECENI EGYETEM, priority 2022, published 2026).

Assay [1] has as its system mouse model of MPO-ANCA vasculitis. Nature of the assay: ANCA vasculitis mouse model (anti-MPO splenocyte transfer into Rag2−/− mice), kidney histology. The class given is in vivo. To be noted: ATB 60 μmol/kg, administered orally (per os).
Procedure: MPO knockout mice were immunized with mouse MPO based on the following protocol. On day 1 200 μl of 20 μg murine MPO (mMPO) or BSA in total with Complete Freud's Adjuvant were injected to MPO KO mice. 30-40 μl were injected to the backfoot footpads and 120-160 μl were injected subcutaneously in the abdominal region. On day 14 20 μg mMPO/BSA were injected IP with incomplete Freud's Adjuvant and on day 28 mice were boosted with 20 μg mMPO/BSA in DPBS buffer IP. 10 days after boost blood was drawn from eye corner under isoflurane anesthesia and antibody titers were checked by anti-MPO ELISA. If titer were low mice were boosted again with 20 μg mMPO or BSA and titer were checked again 7 days later. If titers were appropriate mice were terminated and splenocytes were isolated. […] The remaining red blood cells were lysed with Red Blood Cell Lysis Buffer according to manufacturer's instructions. […] Cells were counted using trypan blue solution, the total cell count varied between 3×10^7 and 6×10^7. Splenocytes derived from 1 mouse were injected into 2 Rag2−/− immunodeficient mice intravenously. […] After 4 weeks antibody titers were checked with anti-MPO ELISA. […]
The percentage of affected glomeruli in treated samples were calculated compared to their control pairs.
In assay [2] the test system is neutrophils. To be noted: cited from earlier work.
Assay [3] relates to neutrophils. To be noted: cited from earlier work. This is another data set of the same source.
The subject of assay [4] is PMA-activated neutrophils.
The test system of assay [5] is PMA activated neutrophils.
Assay [6] deals with neutrophils. Nature of the assay: Neutrophil phagocytosis of fluorescent Escherichia coli K-12 BioParticles (Vybrant kit). The format is cell-based, human. Particulars: GYY4137 10-100 μM, 2 hours.
Procedure: Phagocytosis experiments were carried out with the Vybrant™ Phagocytosis Assay Kit based on manufacturers instruction. Briefly, Fluorescent-labeled Escherichia coli K-12 BioParticles, and trypan blue stock solutions were prepared. […] 1 hour or 5 minutes prior to the addition of the fluorescent BioParticles suspension. After 2 hours the BioParticle solution was removed, 100 μl trypan blue solution was added immediately, and incubated for 1 minute at room temperature. Trypan blue was removed and 100 μl HBSS was added to each well. Fluorescence was measured at the excitation and emission wavelengths of 480 and 520 nm respectively. Samples for microscopy analysis were prepared similarly with the cell number of 2×10^5/well in EZ slide chamber slides.
Setting [7] is: upon PMA and bacterial activation.

Where two headings read alike, the source gives them in different places.

For the compound `COc1ccc2cc(C(C)C(=O)Oc3ccc(C(N)=S)cc3)ccc2c1` (stereo not drawn) [ATB346], the “efficacy on kidney damage in ANCA mouse model” value in assay [1] is listed as “nor proved to be beneficial in reducing kidney damage”; in assay [1] (listed as ATB) it was “proved to be inefficient”.
For `N[C@@H](CS)C(=O)O` [cysteine], in the assay on neutrophils [2] (setting [7]), the neutrophil apoptosis entry is given as “inhibited neutrophil apoptosis” and the oxidative burst entry is “promoted oxidative burst”.
Turning to sodium sulfide, in the assay with neutrophils [3], the “killing of bacteria by neutrophils” value is reported as “more efficient in killing bacteria” and the neutrophil apoptosis result is on record as “diminished neutrophil apoptosis”. In addition, the “β-glucuronidase activity in supernatants (degranulation), PMA activation” value in assay [4] is on record as “no effect on the enzymatic activity”. For the same compound, in the assay with neutrophils [2], the neutrophil apoptosis result is “inhibited neutrophil apoptosis” and the oxidative burst result is “promoted oxidative burst”. Also, the “H2O2 production by PMA-activated neutrophils (FOX assay)” value in assay [5] was “not affected”.
As to `C=CCSSCC=C` [diallyl-disulfide], in the assay with neutrophils [2] (setting [7]), the neutrophil apoptosis result is given as “inhibited neutrophil apoptosis” and the oxidative burst entry is listed as “promoted oxidative burst”.
`C=CCSSSCC=C` [diallyl-trisulfide]: in the assay with neutrophils [2] (setting [7]), the neutrophil apoptosis entry is recorded as “inhibited neutrophil apoptosis” and the oxidative burst entry was “promoted oxidative burst”.
As to `C=C1[C@@H](C)[C@H]2[C@H](Cc3ccccc3)NC(=O)[C@]23[C@H](OC(C)=O)/C=C/[C@@](C)(O)C(=O)[C@@H](C)C/C=C/[C@H]3[C@@H]1O` [cytochalasin D], the “phagocytosis of E. coli Bioparticles (fluorescent microscopy)” value in the assay on neutrophils [6] is listed as “inhibited”.
